The results in this text go back to US11633394B2, “Substituted alkynylene compounds as anticancer agents” (Aurigene Oncology Limited, priority 2018, dated 2023).

Holding throughout (type): cell-based
Test [1] concerns NCI-H2122 cells. As to the kind of experiment: Anti proliferative activity in NCI-H2122 cells by XTT assay. The following applies: Homo sapiens, NCI-H2122, 192 h, H2122 cell line; for IC50: 8 days (192 hour) incubation; for viability at 30 µM: 8 days. The protocol: Example 79: Determination of Anti Proliferative Activity in NCI-H2122 Cells by XTT Assay
NCI-H2122 cells (ATCC CRL-5985) were plated at 1000 cells/well in 96 well flat clear bottom plates (Corning, Cat. No 3596) using complete RPMI-1640 media. After 24 hours, compounds of present invention were added to cells from 10 mM stocks made in DMSO (Sigma Cat no. D2650). Each concentration of compound was tested in triplicate with DMSO concentration not exceeding a final percentage of 0.3 in the cells. Complete RPMI-1640 media changed at Day 3 (72 hour) and Day 6 (144 hour) along with compounds of current invention. After 8 days (192 hour) of incubation assay terminated using 50 μl of XTT reagent (Invitrogen, Cat. no X6493). XTT reagent was made by dissolving 1 mg/mi XTT in serum free media with addition of 25 μM Phenazine methosulfate (sigma Cat. no P9625). Absorbance readings were taken in spectrophotometer at 465 nm. The data was analysed using graph pad prism software. Positive control (100% survival)=Cells in complete media with 0.3% DMSO; Negative control/blank (0% survival)=Media alone containing 0.3% DMSO.
(§1) The compounds of the present invention were screened in the above mentioned assay and the results are tabulated below.
(Formazan colour is commonly taken as a measure of viable cells.)

Test [2] concerns OCI-Ly10 cells. As to the kind of experiment: Anti proliferative activity in OCI-Ly10 cells (CTG luminescence). The following applies: Homo sapiens, OCI-Ly10, 72 h. How it is done: Example 80: Determination of Anti Proliferative Activity in OCI-Ly10 Cells
OCI-Ly10 cells (UHN Canada) were plated at 7500 cells/well in 96 well flat bottom plates (Corning, Cat. No CLS3904) using complete Iscove's Modified Dulbecco's Medium (IMDM. After 6 hours, compounds from the present invention were added to the cells from 10 mM stocks made in DMSO (Sigma, Cat. No D2650). Each concentration of compound was tested in triplicates with DMSO concentration not exceeding a final percentage of 0.1 in the cells. After 72 hours of incubation in CO2 incubator, CTG (Promega, Cat. No G7572) was added to the wells and Luminescence readings were taken in the plate reader. Percent inhibition in proliferation was calculated using Microsoft Excel software. Positive control (100% survival)=Cells in complete media with 0.1% DMSO; Negative control/blank (0% survival)=Media alone containing 0.1% DMSO.

Test [3] concerns NCI-H1792 cells. Nature of the test: Anti proliferative activity in NCI-H1792 cells by XTT assay. The following applies: Homo sapiens, NCI-H1792, 72 h, H1792 cell line. The protocol: Example 78: Determination of Anti Proliferative Activity in NCI-H1792 Cells by XTT Assay
NCI-H1792 cells (ATCC CRL-5895) were plated at 2000 cells/well in 96 well flat clear bottom plates (Corning, Cat. No 3596) using complete RPMI media. After 24 hours, compounds of present invention were added to cells from 20 mM stocks made in DMSO (Sigma Cat no. D2650). Each concentration of compound was tested in triplicate with DMSO concentration not exceeding a final percentage of 0.3 in the cells. After 72 hours of incubation in CO2 incubator, XTT (Invitrogen, Cat. no X6493) was added to the wells. XTT was dissolved in serum free media at 1 mg/ml and absorbance readings were taken in spectrophotometer at 465 nm. The data was analysed using graph pad prism software. Positive control (100% survival)=Cells in complete media with 0.3% DMSO; Negative control/blank (0% survival)=Media alone containing 0.3% DMSO.
as §1

For `C=CC(=O)N1CCN(C(=O)NC(C)C#Cc2ccc(Cl)c(NC(=O)C3CC3)c2)CC1` (racemic) [Example 41, 4-acryloyl-N-(4-(4-chloro-3-(cyclopropanecarboxamido)phenyl)but-3-yn-2-yl) piperazine-1-carboxamide], the IC50 (commonly the midpoint of a concentration-inhibition curve) in test [1] is 10 to 25 µM. For the same compound, in test [2], testing at 1 µM gave an inhibition of 0% and the inhibition (commonly how much of the control response was suppressed) at 10 µM stood at 36%.
Taken in the same sequence, the figures for `C=CC(=O)N1CC(N2CCN(C(=O)NC(C)C#Cc3ccc(Cl)c(C4(C)CC4)c3)CC2)C1` (stereo not shown) [Example 29] were under 10 µM, 42% and 90%.
`C=CS(=O)(=O)N[C@H]1CC[C@@H](NC(=O)NC(C)C#Cc2ccc(Cl)c(Cl)c2)CC1` (mixture of isomers) [Example 50, N-((1s, 4s)-4-(3-(4-(3,4-dichlorophenyl)but-3-yn-2-yl)ureido)cyclohexyl) ethenesulfonamide] had a half-inhibitory concentration (IC50) in test [3] (72 hours incubation) of under 10 µM. The viability (in general, the share of living cells, or the viability signal relative to a control) at 30 µM in test [3] (at 30 μM, 72 hours) is 17%; in test [1] it was 1%. This compound also gave an inhibition at 1 µM in test [2] of 32%. This compound also registered an inhibition at 10 µM in test [2] of 48%.
For the compound `CC(C#Cc1ccc(Cl)c(Cl)c1)NC(=O)N1CCN(C(=O)/C=C/C(F)(F)F)CC1` (racemic) [Example 42, (E)-N-(4-(3,4-dichlorophenyl)but-3-yn-2-yl)-4-(4,4,4-trifluorobut-2-enoyl) piperazine-1-carboxamide], in test [1], the IC50 was under 10 µM and the viability at 30 µM was determined as 0%. In test [2], this compound yielded an inhibition at 1 µM of 81% and an inhibition at 10 µM of 62%.
Taken in the same sequence, the figures for `C=CC(=O)N1CCN(C(=O)NC(C)C#Cc2ccc(Cl)c(Cl)c2)CC1=O` (racemic) [Example 52, 4-acryloyl-N-(4-(3,4-dichlorophenyl)but-3-yn-2-yl)-3-oxopiperazine-1-carboxamide] were 10 to 25 µM, 78%, 3% and 82%.
`O=C(/C=C/C(F)(F)F)N1CCN(C(=O)NC2(C#Cc3ccc(Cl)c(Cl)c3)CC2)CC1` [Example 66, (E)-N-(1-((3,4-dichlorophenyl)ethynyl)cyclopropyl)-4-(4,4,4-trifluorobut-2-enoyl) piperazine-1-carboxamide]: in test [1], the IC50 was under 10 µM. In test [2], this compound registered an inhibition at 1 µM of 75% and an inhibition at 10 µM of 73%.
Regarding `C=CS(=O)(=O)N1CCN(C(=O)NC2(C#Cc3ccc(Cl)c(Cl)c3)CC2)CC1` [Example 51, N-(1-((3,4-dichlorophenyl)ethynyl)cyclopropyl)-4-(vinylsulfonyl) piperazine-1-carboxamide], in test [1], the viability at 30 µM turned out to be 0%. In test [2], this compound displayed an inhibition at 1 µM of 3% and an inhibition at 10 µM of 52%.
